Results taken from patent publication US8569344B2, “N-piperidinyl acetamide derivatives as calcium channel blockers” (Zalicus Pharmaceuticals Ltd., priority 2008, dated 2013).
Like-named read-outs stand apart in the source and are kept apart here. Blank lines part the entries; values can stand above or below the compound they belong to.

Columns and labels:
Type in all cases: cell-based
[1] = molecular target: T1, human α1H T-type channels (Homo sapiens, UniProt O95180); experiment: T-type calcium channel block, whole cell patch clamp in HEK cells (α1H); conditions: HEK cells, patch clamp, mainly non-inactivated protocol; values above 10 μM shown as 10 μM; read-out: T-type Calcium Channel Block α1H IC50
T1 construct: expressed in transfected cells; host or cells: HEK 293

hERG K+ channel = hERG K+ channel (Homo sapiens, UniProt Q12809); experiment: hERG K+ Channel Block
[2] = molecular target: T2, human α1G T-type channels (Homo sapiens, UniProt O43497); experiment: T-type calcium channel block, whole cell patch clamp in HEK cells (α1G); conditions: HEK cells, patch clamp, mainly non-inactivated protocol; values above 10 μM shown as 10 μM, below 0.30 μM shown as 0.30 μM; read-out: T-type Calcium Channel Block α1G IC50
T2 construct: expressed in transfected cells; host or cells: HEK 293

Chain of hERG K+ channel (Q12809 whole entry): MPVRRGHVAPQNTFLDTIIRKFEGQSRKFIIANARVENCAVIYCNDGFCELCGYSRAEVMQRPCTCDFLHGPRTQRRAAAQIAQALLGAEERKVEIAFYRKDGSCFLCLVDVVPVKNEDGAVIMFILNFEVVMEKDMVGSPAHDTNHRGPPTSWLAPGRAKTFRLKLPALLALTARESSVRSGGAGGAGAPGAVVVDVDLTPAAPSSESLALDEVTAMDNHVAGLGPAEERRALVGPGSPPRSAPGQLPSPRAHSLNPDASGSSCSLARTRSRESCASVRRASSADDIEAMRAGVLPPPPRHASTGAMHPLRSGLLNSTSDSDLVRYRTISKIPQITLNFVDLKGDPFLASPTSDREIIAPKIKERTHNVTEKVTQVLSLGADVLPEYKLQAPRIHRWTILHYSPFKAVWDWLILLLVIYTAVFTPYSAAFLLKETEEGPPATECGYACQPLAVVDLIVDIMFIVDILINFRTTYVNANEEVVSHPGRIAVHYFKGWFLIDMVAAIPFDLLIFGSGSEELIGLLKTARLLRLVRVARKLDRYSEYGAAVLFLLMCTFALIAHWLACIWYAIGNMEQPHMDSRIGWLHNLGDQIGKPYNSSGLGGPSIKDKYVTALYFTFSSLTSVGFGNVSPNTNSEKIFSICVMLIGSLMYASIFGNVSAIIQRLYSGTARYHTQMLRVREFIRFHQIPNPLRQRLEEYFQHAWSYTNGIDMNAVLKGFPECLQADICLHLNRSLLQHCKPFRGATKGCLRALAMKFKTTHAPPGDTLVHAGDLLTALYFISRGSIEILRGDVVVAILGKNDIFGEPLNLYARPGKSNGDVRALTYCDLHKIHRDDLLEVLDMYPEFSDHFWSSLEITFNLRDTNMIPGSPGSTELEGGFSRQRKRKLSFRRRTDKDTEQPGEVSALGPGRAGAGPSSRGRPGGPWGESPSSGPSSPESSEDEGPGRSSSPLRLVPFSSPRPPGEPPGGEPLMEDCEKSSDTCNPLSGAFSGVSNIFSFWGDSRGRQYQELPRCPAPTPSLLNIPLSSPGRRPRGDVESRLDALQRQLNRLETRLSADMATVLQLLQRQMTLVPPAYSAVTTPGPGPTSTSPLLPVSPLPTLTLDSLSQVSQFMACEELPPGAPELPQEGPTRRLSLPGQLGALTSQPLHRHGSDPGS
T1 sequence (O95180 whole entry): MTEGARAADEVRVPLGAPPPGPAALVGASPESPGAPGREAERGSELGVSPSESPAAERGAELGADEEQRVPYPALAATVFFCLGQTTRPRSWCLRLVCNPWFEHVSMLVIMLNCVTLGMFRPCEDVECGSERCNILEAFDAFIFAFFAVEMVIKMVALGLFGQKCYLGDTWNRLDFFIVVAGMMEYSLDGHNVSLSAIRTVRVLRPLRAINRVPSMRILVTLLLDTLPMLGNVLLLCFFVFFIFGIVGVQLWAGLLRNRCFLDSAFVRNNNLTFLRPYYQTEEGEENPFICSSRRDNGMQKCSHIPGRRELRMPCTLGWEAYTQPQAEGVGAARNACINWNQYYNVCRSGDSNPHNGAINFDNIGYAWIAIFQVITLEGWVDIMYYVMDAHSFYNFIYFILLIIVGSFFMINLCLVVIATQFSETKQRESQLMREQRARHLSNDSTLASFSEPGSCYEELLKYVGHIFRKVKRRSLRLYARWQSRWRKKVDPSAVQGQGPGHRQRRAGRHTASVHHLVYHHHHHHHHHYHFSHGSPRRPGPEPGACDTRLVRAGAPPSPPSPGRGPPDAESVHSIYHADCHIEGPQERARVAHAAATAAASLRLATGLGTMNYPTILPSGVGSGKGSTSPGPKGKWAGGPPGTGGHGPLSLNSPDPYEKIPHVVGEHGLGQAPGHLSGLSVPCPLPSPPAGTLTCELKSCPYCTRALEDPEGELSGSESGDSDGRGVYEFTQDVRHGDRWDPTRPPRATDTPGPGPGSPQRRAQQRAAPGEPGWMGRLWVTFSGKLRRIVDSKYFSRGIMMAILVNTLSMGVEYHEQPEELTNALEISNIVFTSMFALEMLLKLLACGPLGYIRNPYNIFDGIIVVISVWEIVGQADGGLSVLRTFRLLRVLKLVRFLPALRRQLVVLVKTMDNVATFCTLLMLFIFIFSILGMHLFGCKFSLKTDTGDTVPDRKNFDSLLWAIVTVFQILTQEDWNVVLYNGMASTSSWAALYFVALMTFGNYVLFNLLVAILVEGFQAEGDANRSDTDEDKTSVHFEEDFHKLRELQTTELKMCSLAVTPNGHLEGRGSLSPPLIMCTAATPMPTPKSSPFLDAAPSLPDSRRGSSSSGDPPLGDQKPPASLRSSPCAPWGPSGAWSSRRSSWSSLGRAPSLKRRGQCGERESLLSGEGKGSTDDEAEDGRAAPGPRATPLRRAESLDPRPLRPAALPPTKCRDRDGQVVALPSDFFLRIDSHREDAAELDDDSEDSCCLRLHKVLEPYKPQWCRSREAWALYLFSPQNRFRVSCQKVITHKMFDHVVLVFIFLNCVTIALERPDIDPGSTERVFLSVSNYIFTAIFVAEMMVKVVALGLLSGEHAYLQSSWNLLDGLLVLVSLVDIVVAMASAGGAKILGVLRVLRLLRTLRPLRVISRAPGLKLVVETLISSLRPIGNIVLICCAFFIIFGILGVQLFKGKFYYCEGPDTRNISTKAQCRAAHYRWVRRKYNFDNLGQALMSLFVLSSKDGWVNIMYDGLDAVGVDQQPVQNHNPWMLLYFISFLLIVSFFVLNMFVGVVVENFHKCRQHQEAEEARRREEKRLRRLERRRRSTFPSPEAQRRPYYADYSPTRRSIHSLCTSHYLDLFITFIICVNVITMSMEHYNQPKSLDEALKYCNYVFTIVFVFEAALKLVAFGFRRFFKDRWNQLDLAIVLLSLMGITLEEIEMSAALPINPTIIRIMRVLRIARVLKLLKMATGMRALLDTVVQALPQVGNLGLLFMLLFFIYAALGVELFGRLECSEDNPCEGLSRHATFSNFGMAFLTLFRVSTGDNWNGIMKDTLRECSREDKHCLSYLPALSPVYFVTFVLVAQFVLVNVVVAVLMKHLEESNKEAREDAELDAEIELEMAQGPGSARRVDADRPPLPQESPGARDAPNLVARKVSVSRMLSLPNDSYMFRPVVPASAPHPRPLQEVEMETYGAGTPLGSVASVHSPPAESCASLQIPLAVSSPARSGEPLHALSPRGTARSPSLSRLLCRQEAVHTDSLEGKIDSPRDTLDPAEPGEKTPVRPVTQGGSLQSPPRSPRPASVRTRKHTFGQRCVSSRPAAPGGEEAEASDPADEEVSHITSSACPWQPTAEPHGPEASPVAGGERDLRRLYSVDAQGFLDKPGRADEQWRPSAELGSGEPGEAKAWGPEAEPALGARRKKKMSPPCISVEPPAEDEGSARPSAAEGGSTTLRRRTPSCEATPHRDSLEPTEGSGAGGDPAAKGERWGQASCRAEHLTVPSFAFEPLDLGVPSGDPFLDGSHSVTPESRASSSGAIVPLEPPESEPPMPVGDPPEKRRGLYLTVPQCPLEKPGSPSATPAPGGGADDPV

SMILES: O=C(NCC1CCN(CCNC(=O)C2CC2)CC1)c1cc(C(F)(F)F)cc(C(F)(F)F)c1 [Compound 59, N-((1-(2-(cyclopropanecarboxamido)ethyl)piperidin-4-yl)methyl)-3,5-bis(trifluoromethyl)benzamide]
IC50 [1]: 1660 nM
IC50 (hERG K+ channel): 2800 nM

SMILES: CC(C)S(=O)(=O)NCCN1CCC(CC(=O)Nc2cc(Br)cc(C(F)(F)F)c2)CC1 [Compound 391, N-(3-bromo-5-(trifluoromethyl)phenyl)-2-(1-(2-(1-methylethylsulfonamido)ethyl)piperidin-4-yl)acetamide]
IC50 [2]: < 300 nM
IC50 (hERG K+ channel): 630 nM

SMILES: CC(C)CS(=O)(=O)NCCN1CCC(CC(=O)Nc2cc(F)cc(C(F)(F)F)c2)CC1 [Compound 427, N-(3-fluoro-5-(trifluoromethyl)phenyl)-2-(1-(2-(2-methylpropylsulfonamido)ethyl)piperidin-4-yl)acetamide]
IC50 [2]: < 300 nM
IC50 (hERG K+ channel): 450 nM

SMILES: CC(C)(F)CNC(=O)CN1CCC(CNC(=O)c2cccc(Cl)c2)CC1 [Compound 554, 3-chloro-N-((1-(2-(2-fluoro-2-methylpropylamino)-2-oxoethyl)piperidin-4-yl)methyl)benzamide]
IC50 [2]: > 10000 nM
IC50 [1]: > 10000 nM

SMILES: CC(C)(F)CNC(=O)CN1CCC(CNC(=O)c2cc(F)cc(C(F)(F)F)c2)CC1 [Compound 556, 3-fluoro-N-((1-(2-(2-fluoro-2-methylpropylamino)-2-oxoethyl)piperidin-4-yl)methyl)-5-(trifluoromethyl)benzamide]
IC50 [2]: 1370 nM
IC50 [1]: 1770 nM

SMILES: COc1cc(F)cc(C(=O)NCC2CCN(CC(=O)NCC(C)(C)F)CC2)c1 [Compound 557, 3-fluoro-N-((1-(2-(2-fluoro-2-methylpropylamino)-2-oxoethyl)piperidin-4-yl)methyl)-5-methoxy-benzamide]
IC50 [2]: 3580 nM
IC50 [1]: 1310 nM

SMILES: CC(C(=O)N1CCSC1)N1CCC(CNC(=O)c2cc(F)cc(Cl)c2)CC1 (stereo not drawn) [Compound 559, 3-chloro-5-fluoro-N-((1-(1-oxo-1-(thiazolidin-3-yl)propan-2-yl)piperidin-4-yl)methyl)benzamide]
IC50 [2]: 9060 nM
IC50 [1]: > 10000 nM

SMILES: CC(C)(C)ONC(=O)CN1CCC(CNC(=O)c2cc(C(F)(F)F)cc(C(F)(F)F)c2)CC1 [Compound 560, N-((1-(2-(tert-butoxyamino)-2-oxoethyl)piperidin-4-yl)methyl)-3,5-bis(trifluoromethyl)benzamide]
IC50 [2]: 470 nM
IC50 [1]: 590 nM

SMILES: NC1(C(=O)NCCN2CCC(CNC(=O)c3cc(F)cc(C(F)(F)F)c3)CC2)CCCCC1 [Compound 570, N-((1-(2-(1-aminocyclohexanecarboxamido)ethyl)piperidin-4-yl)methyl)-3-fluoro-5-(trifluoromethyl)benzamide]
IC50 [2]: 2060 nM
IC50 [1]: 2360 nM

SMILES: NC1(C(=O)NCCN2CCC(CNC(=O)c3cc(F)cc(C(F)(F)F)c3)CC2)CCC1 [Compound 571, N-((1-(2-(1-aminocyclobutanecarboxamido)ethyl)piperidin-4-yl)methyl)-3-fluoro-5-(trifluoromethyl) benzazmide]
IC50 [2]: > 10000 nM
IC50 [1]: > 10000 nM

SMILES: CC(C)(C)OC(=O)NC1(C(=O)NCCN2CCC(CNC(=O)c3cc(F)cc(C(F)(F)F)c3)CC2)CCC1 [Compound 572, tert-buyl 1-(2-(4-((3-fluoro-5-(trifluoromethyl)benzamido)methyl)piperidin-1-yl)ethylcarbamoyl) cyclobutylcarbamate]
IC50 [2]: 490 nM
IC50 [1]: 1560 nM

SMILES: CC(C)(C)S(=O)(=O)NCCN1CCC(CNC(=O)c2cccc(Cl)c2)CC1 [Compound 573, 3-chloro-N-((1-(2-(1,1-dimethylethylsulfonamido)ethyl)piperidin-4-yl)methyl)benzamide]
IC50 [2]: 1270 nM
IC50 [1]: 1010 nM

SMILES: Cc1cc(F)cc(C(=O)NCC2CCN(CCNS(=O)(=O)C(C)(C)C)CC2)c1 [Compound 575, N-((1-(2-(1,1-dimethylethylsulfonamido)ethyl)piperidin-4-yl)methyl)-3-fluoro-5-methylbenzamide]
IC50 [2]: 1250 nM
IC50 [1]: 1040 nM

SMILES: CS(=O)(=O)c1cc(C(=O)NCC2CCN(CC(=O)NC3CCCC3)CC2)cc(C(F)(F)F)c1 [Compound 585, N-((1-(2-(cyclopentylamino)-2-oxoethyl)piperidin-4-yl)methyl)-3-(methylsulfonyl)-5-(trifluoromethyl)benzamide]
IC50 [2]: > 10000 nM
IC50 [1]: > 10000 nM

SMILES: CS(=O)(=O)c1cc(C(=O)NCC2CCN(CCNC(=O)C3(C(F)(F)F)CCC3)CC2)cc(C(F)(F)F)c1 [Compound 586, 3-(methylsulfonyl)-5-(trifluoro-methyl)-N-((1-(2-(1-(trifluoromethyl)cyclobutane-carboxamido)ethyl)piperidin-4-yl)methyl)benzamide]
IC50 [2]: > 10000 nM
IC50 [1]: 4800 nM

SMILES: CC(C)(C(=O)NCCN1CCC(CNC(=O)c2cc(C(F)(F)F)cc(S(C)(=O)=O)c2)CC1)C(F)(F)F [Compound 587, 3-(methylsulfonyl)-N-((1-(2-(3,3,3-trifluoro-2,2-dimethyl-propanamido)ethyl)piperidin-4-yl)methyl)-5-(trifluoromethyl) benzamide]
IC50 [2]: > 10000 nM
IC50 [1]: 3590 nM

Second part, led by results:

IC50 [1]: 200 nM
SMILES: CC(C)CS(=O)(=O)NCCN1CCC(CNC(=O)c2cc(F)cc(C(F)(F)F)c2)CC1 [Compound 26, 3-fluoro-N-((1-(2-(2-methylpropylsulfonamido)ethyl)piperidin-4-yl)methyl)-5-(trifluoromethyl)benzamide]
IC50 (hERG K+ channel): 2600 nM

IC50 [1]: 230 nM
SMILES: O=C(NCC1CCN(CCNS(=O)(=O)C(F)(F)F)CC1)c1cc(Br)cc(C(F)(F)F)c1 [Compound 115, 3-bromo-5-(trifluoromethyl)-N-((1-(2-(trifluoromethylsulfonamido)ethyl)piperidin-4-yl)methyl)benzamide]
IC50 (hERG K+ channel; human): ≥ 8300 nM

IC50 [2]: 530 nM
IC50 [1]: 890 nM
SMILES: CC(C)(F)CNC(=O)CN1CCC(CNC(=O)c2cc(C(F)(F)F)cc(C(F)(F)F)c2)CC1 [Compound 555, N-((1-(2-(2-fluoro-2-methylpropyl-amino)-2-oxoethyl)piperidin-4-yl)methyl)-3,5-bis(trifluoromethyl) benzamide]

IC50 [2]: < 300 nM
IC50 [1]: 460 nM
SMILES: CC(C(=O)N1CCC[C@@H]1C(F)(F)F)N1CCC(CNC(=O)c2cc(F)cc(Cl)c2)CC1 (stereo partly drawn) [Compound 558, 3-chloro-5-fluoro-N-((1-(1-oxo-1-((R)-2-(trifluoromethyl)pyrrolidin-1-yl)propan-2-yl)piperidin-4-yl)methyl) benzamide]

IC50 [2]: < 300 nM
IC50 [1]: 270 nM
SMILES: O=C(CN1CCC(CNC(=O)c2cc(F)cc(C(F)(F)F)c2)CC1)NC1(C2CCOCC2)CC1 [Compound 561, 3-fluoro-N-((1-(2-oxo-2-(1-(tetrahydro-2H-pyran-4-yl)cyclopropylamino)ethyl)piperidin-4-yl)methyl)-5-(trifluoromethyl) benzamide]

IC50 [2]: 400 nM
IC50 [1]: 660 nM
SMILES: COc1cc(F)cc(C(=O)NCC2CCN(CC(=O)NC3(C4CCOCC4)CC3)CC2)c1 [Compound 562, 3-fluoro-5-methoxy-N-((1-(2-oxo-2-(1-(tetrahydro-2H-pyran-4-yl)cyclopropylamino)ethyl)piperidin-4-yl)methyl)benzamide]

IC50 [2]: < 300 nM
IC50 [1]: 310 nM
SMILES: O=C(CN1CCC(CNC(=O)c2cc(F)cc(Cl)c2)CC1)NC1(C2CCOCC2)CC1 [Compound 563, 3-chloro-5-fluoro-N-((1-(2-oxo-2-(1-(tetrahydro-2H-pyran-4-yl)cyclopropylamino)ethyl)piperidin-4-yl)methyl)benzamide]

IC50 [2]: < 300 nM
IC50 [1]: 100 nM
SMILES: COCC(C)(C)NC(=O)CN1CCC(CNC(=O)c2cc(F)cc(C(F)(F)F)c2)CC1 [Compound 564, 3-fluoro-N-((1-(2-(1-methoxy-2-methylpropan-2-ylamino)-2-oxoethyl)piperidin-4-yl)methyl)-5-(trifluoromethyl)benzamide]

IC50 [2]: 310 nM
IC50 [1]: 220 nM
SMILES: CC(C)(C)S(=O)(=O)NCCN1CCC(CNC(=O)c2cc(F)cc(Cl)c2)CC1 [Compound 565, 3-chloro-N-((1-(2-(1,1-dimethylethylsulfonamido)ethyl)piperidin-4-yl)methyl)-5-fluoro-benzamide]

IC50 [2]: 760 nM
IC50 [1]: 820 nM
SMILES: COCC(C)(C)NC(=O)CN1CCC(CNC(=O)c2cccc(Cl)c2)CC1 [Compound 566, 3-chloro-N-((1-(2-(1-methoxy-2-methylpropan-2-ylamino)-2-oxoethyl)piperidin-4-yl)methyl) benzamide]

IC50 [2]: 1360 nM
IC50 [1]: 890 nM
SMILES: O=C(NCC1CCN(CCN2C(=O)NC3(CCCCC3)C2=O)CC1)c1cc(F)cc(C(F)(F)F)c1 [Compound 568, N-((1-(2-(2,4-dioxo-1,3-diazaspiro[4.5]decan-3-yl)ethyl)piperidin-4-yl)methyl)-3-fluoro-5-(trifluoromethyl)benzamide]

IC50 [2]: 430 nM
IC50 [1]: 930 nM
SMILES: COc1cc(OC)cc(C(=O)NCC2CCN(CCNS(=O)(=O)C(C)(C)C)CC2)c1 [Compound 576, N-((1-(2-(1,1-dimethyethylsulfonamido)ethyl)piperidin-4-yl)methyl)-3,5-dimethoxybenzamide]

IC50 [2]: < 300 nM
IC50 [1]: 50 nM
SMILES: CN(C(=O)CN1CCC(CNC(=O)c2cc(F)cc(Cl)c2)CC1)C(C)(C)C(F)(F)F [Compound 579, 3-chloro-5-fluoro-N-((1-(2-(methyl (1,1,1-trifluoro-2-methylpropan-2-yl)amino)-2-oxoethyl)piperidin-4-yl)methyl)benzamide]

IC50 [2]: < 300 nM
IC50 [1]: 280 nM
SMILES: COc1cc(F)cc(C(=O)NCC2CCN(CC(=O)N(C)C3(C)CCC3)CC2)c1 [Compound 584, 3-fluoro-5-methoxy-N-((1-(2-(methyl(1-methylcyclobutyl)amino)-2-oxoethyl)piperidin-4-yl)methyl)benzamide]
